Experimental data published in patent US20030008331A1, “Directed evolution biosensors” (priority 1998, published 2003).

System: cells which do not express the β2-adrenergic receptor (wild type)
Assay: melanophore pigment dispersion assay, wild type cells
Assay type: cell-based, frog
Details: wild type melanophores, two successive tests

Compound: CC(C)(C)NCC(O)c1ccc(O)c(CO)c1 (stereo not shown) [salbutamol]
- response of cells to challenge: did not respond
